Reference: PMC8224453, “A New PqsR Inverse Agonist Potentiates Tobramycin Efficacy to Eradicate Pseudomonas aeruginosa Biofilms” (Advanced Science, 2021)
Several values for one entry are separate records, joined by “and”; a condition that tells them apart may be missing. Equal entries are not always repeated. Where two headings read alike, the source gives them in different places.

Experiments:
[1] = In vivo pharmacokinetics after intratracheal instillation; parameters: species or system mouse; settings: for Kp / Cmax / AUC(0-t) / MRT / Tmax / half-life / CL/F / Vd/F / AUC: male, CD1, mouse, inhaled or intranasal; for Kp: BALF and plasma, read-out: AUC ratio BALF/Plasma; for Vd/F: read-out: Vz/F_obs
Experimental: 6.2. PK Sample Preparation and Analysis
Groups of male CD1 mice (25-30 g, Charles River UK) were housed in groups of up to 6 and maintained under a 12 h light/dark cycle with free access to food and water. Temperature and humidity were controlled according to U.K. HO regulations. On the day of the study, mice were briefly anaesthetized with isoflurane before suspending the mouse by its upper incisors on a board held at an angle of approx. 45 degrees. Mice were then dosed intratracheally with the compound (4 or Tob) at the designated does formulated in ethanol/tyloxapol/glycerol/phosphate-buffered saline (PBS) [10:1:5:84] in a 1 mL/kg dosing volume up to a maximum of 30 µL per mouse. A laryngoscope was used to facilitate dosing.
Animals were allowed to recover before replacing into their home cages. […]
Blood samples were placed in tubes on ice containing EDTA anticoagulant. After gentle mixing, samples were centrifuged (10,000 rpm x 3 min) and two 50 μL aliquots taken into fresh tubes that were immediately frozen on dry ice. Following blood sample collection, tracheas were exposed and a small incision made. An 18 Gauge plastic tube was then inserted through the incision into the trachea and tied in place. Aliquots of 0.8 mL of sterile saline were then infused into and then withdrawn from the lungs and the collected bronchoalveolar lavage (BAL) sample placed into a tube. This process was repeated two more times, and the samples from each mouse pooled. The resulting samples were weighed and mixed, before a 1 mL aliquot was taken for analysis and frozen on dry ice.
Immediately after collecting the final BALF sample, lung samples were excised and excess tissue removed, before rinsing in saline, blotting and weighing. Samples were then snap frozen by immersion in liquid nitrogen. All samples were stored at -20 °C until sent for […]
All PK plasma samples were analyzed via HPLC-MS/MS using an Agilent 1290 Infinity II HPLC system coupled to an AB Sciex QTrap 6500plus mass spectrometer. First, a calibration curve was prepared by spiking different concentrations of compound 4 or Tob (Fa. Sigma) into plasma, homogenized lung from CD-1 mice or 0.9% sodium chloride solution as matrix for broncheoalveolar lavage fluid (BALF). The lower limits of quantification are indicated in Table S5. Caffeine was used as internal standard. In addition, quality control samples (QCs) were prepared for 4 and Tob in plasma, homogenized lung and 0.9% sodium chloride […]
The following extraction procedure was used for 4: plasma: 7.5 µL of a plasma sample (calibration samples, QCs or PK samples) was extracted with 37.5 µL of acetonitrile containing 12.5 ng/mL caffeine as internal standard for 10 min at 2000 rpm on an Eppendorf MixMate® vortex mixer. Lung: homogenized samples were diluted to 50 mg/mL lung tissue in 0.9% sodium chloride solution. A 50 µL of a lung sample (calibration samples, QCs or PK samples) was extracted with 15 µL water containing 10% formic acid and 50 µL of acetonitrile containing 12.5 ng/mL caffeine as internal standard for 10 min at 2.000 rpm on an Eppendorf MixMate® vortex mixer. BALF: 200 µL of methanol were added to 100 µL of a BALF sample (calibration samples, QCs or PK samples). Samples were concentrated in an Eppendorf concentrator until dryness at 30 °C. A 30 µL of water containing 10% formic acid

[2] = Metabolic stability, mouse liver S9; format: in vitro ADME
Experimental: For the evaluation of combined phase I and phase II metabolic stability, the compound (1 μM) was incubated with 1 mg/mL pooled liver S9 fraction from the respective species (Xenotech), […]
2 mM NADPH, 1 mM UDPGA, 10 mM MgCl2, 5 mM GSH and 0.1 mM PAPS at 37 °C for […]
0, 5, 15, 30 or 60 min. The metabolic stability of Testosterone (1 μM) and verapamil (1 μM) […]
were determined in parallel to confirm the enzymatic activity of the S9 fraction. The […]
incubation was stopped by precipitation of S9 enzymes with 2 volumes of cold acetonitrile […]
containing internal standard (750 nM Diphenhydramine). Samples were stored on ice for 10 […]
min and precipitated protein was removed by centrifugation (10 min, 4 °C, 17,000 g).
Concentration of the remaining test compound at the different time points was analyzed by […]
LC-MS/MS (TSQ Quantum Access MAX, Thermo Fisher, Dreieich, Germany) and used to […]
determine half-life (t1/2). Stability of compound 4 in further S9 fractions are summarized in […]
Table S4. Metabolic stability studies in various S9 fractions. […]

hERG channel = target: T1, hERG channel (Homo sapiens, UniProt Q12809); experiment: hERG functional patch-clamp inhibition assay; format: cell-based
T1 construct: Cyprotex (contract assay)
T1 sequence (Q12809 whole entry): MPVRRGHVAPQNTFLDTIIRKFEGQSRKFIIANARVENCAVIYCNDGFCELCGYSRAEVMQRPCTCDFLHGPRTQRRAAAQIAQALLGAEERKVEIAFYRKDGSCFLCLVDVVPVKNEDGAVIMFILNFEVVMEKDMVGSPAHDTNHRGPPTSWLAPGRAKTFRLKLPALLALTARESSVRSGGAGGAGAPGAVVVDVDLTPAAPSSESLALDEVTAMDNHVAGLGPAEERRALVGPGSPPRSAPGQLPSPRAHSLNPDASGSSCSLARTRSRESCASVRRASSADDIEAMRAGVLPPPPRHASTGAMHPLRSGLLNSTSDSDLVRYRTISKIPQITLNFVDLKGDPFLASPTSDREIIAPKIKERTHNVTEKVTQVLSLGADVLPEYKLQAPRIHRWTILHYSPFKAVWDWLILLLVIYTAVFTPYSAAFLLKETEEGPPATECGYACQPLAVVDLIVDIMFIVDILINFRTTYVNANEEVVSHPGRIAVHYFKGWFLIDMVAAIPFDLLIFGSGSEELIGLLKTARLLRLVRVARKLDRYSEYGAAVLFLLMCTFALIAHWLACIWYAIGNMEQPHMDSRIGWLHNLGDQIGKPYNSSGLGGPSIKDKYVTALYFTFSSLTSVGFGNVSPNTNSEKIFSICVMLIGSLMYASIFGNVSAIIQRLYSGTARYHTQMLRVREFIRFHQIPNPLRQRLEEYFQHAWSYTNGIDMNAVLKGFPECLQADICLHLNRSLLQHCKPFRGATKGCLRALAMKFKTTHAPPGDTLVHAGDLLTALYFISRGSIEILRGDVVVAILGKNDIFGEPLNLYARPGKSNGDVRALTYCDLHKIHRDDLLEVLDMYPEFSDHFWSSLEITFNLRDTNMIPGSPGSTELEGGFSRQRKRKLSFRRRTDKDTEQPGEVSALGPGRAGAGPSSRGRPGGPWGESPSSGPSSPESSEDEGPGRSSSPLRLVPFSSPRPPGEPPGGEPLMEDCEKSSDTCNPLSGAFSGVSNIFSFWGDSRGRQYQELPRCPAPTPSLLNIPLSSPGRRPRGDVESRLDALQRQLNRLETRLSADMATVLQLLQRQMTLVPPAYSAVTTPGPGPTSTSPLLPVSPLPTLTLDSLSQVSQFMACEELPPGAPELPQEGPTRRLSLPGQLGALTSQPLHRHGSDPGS
Experimental: (§1) 5.2. CYP and hERG inhibition
(§2) Assessment of in vitro drug safety regarding Cytochrom P450 (CYP) inhibition and inhibiton of human ether-à-go-go related gene (hERG) channel with a functional (patch-clamp-based) assay were performed at Cyprotex. Detailed information about the assays can be found in: https://www.cyprotex.com/admepk/in-vitro-metabolism/cytochrome-p450-inhibition, and […]

CYP3A4 = target: T2, CYP3A4 (Homo sapiens, UniProt P08684); experiment: CYP inhibition (Cyprotex); format: in vitro ADME; settings: read-out: CYP inhibition 3A4
T2 construct: Cyprotex (contract assay)
T2 sequence (P08684 whole entry): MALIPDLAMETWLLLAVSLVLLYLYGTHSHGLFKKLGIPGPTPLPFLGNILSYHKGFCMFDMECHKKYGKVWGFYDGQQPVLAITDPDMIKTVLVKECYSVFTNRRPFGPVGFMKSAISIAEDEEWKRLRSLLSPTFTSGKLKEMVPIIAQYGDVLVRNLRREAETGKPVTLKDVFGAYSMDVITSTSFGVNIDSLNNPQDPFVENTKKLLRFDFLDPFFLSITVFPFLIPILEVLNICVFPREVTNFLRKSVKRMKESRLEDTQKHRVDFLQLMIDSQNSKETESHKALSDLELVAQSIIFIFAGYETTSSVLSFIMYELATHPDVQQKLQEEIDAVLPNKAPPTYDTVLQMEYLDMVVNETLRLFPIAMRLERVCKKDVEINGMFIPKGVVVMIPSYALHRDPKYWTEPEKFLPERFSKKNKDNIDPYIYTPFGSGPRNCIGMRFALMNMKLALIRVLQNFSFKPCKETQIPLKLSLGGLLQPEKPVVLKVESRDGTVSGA
Experimental: as §1, §2

CYP1A = target: T3, CYP1A (Homo sapiens, UniProt P05177); experiment: CYP inhibition (Cyprotex); format: in vitro ADME; settings: read-out: CYP inhibition 1A
T3 construct: Cyprotex (contract assay)
T3 sequence (P05177 2-516 limits assumed): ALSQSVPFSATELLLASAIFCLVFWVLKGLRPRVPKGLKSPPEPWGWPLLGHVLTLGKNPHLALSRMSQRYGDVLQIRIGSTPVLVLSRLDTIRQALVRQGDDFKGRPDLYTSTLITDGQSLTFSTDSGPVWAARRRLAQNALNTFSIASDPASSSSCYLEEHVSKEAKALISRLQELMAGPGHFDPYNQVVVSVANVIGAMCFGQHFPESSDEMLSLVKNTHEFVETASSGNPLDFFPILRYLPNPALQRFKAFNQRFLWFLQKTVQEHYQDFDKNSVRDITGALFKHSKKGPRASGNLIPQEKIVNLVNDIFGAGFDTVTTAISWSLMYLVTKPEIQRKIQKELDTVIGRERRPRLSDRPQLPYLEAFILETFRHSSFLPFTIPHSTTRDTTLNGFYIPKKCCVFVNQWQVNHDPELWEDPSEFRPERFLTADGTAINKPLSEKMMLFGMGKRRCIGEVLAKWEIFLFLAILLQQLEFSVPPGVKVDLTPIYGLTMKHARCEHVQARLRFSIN
Experimental: as §1, §2

CYP2D6 = target: T4, CYP2D6 (Homo sapiens, UniProt P10635); experiment: CYP inhibition (Cyprotex); format: in vitro ADME; settings: read-out: CYP inhibition 2D6
T4 construct: Cyprotex (contract assay)
T4 sequence (P10635 whole entry): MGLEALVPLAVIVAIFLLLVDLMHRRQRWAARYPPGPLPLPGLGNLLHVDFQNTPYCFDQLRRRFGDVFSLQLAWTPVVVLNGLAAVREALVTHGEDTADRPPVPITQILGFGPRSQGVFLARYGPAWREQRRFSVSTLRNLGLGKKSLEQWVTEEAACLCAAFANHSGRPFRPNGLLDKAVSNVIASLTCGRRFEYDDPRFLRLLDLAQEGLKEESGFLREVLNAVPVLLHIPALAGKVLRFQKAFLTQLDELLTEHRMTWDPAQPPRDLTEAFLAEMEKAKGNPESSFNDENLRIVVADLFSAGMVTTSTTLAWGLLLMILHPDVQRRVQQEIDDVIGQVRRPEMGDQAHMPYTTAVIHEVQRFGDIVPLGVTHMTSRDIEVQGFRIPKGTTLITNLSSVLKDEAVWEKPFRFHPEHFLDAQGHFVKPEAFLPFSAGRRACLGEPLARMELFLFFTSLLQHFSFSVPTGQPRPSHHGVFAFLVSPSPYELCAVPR
Experimental: as §1, §2

CYP2C19 = target: T5, CYP2C19 (Homo sapiens, UniProt P33261); experiment: CYP inhibition (Cyprotex); format: in vitro ADME; settings: read-out: CYP inhibition 2C19
T5 construct: Cyprotex (contract assay)
T5 sequence (P33261 whole entry): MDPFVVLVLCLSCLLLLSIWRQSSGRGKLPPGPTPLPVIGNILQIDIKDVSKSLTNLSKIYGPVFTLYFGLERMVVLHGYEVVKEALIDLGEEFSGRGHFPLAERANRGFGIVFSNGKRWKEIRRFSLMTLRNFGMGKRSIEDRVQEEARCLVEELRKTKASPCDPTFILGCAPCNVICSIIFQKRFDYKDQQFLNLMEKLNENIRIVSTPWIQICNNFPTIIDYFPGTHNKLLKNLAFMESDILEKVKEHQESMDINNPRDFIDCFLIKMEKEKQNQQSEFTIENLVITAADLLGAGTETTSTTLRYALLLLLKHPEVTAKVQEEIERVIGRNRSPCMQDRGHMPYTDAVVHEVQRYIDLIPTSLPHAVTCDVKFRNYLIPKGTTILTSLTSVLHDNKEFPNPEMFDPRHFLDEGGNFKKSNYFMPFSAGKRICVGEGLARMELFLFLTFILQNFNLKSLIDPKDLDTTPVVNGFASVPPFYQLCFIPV
Experimental: as §1, §2

CYP2C9 = target: T6, CYP2C9 (Homo sapiens, UniProt P11712); experiment: CYP inhibition (Cyprotex); format: in vitro ADME; settings: read-out: CYP inhibition 2C9
T6 construct: Cyprotex (contract assay)
T6 sequence (P11712 whole entry): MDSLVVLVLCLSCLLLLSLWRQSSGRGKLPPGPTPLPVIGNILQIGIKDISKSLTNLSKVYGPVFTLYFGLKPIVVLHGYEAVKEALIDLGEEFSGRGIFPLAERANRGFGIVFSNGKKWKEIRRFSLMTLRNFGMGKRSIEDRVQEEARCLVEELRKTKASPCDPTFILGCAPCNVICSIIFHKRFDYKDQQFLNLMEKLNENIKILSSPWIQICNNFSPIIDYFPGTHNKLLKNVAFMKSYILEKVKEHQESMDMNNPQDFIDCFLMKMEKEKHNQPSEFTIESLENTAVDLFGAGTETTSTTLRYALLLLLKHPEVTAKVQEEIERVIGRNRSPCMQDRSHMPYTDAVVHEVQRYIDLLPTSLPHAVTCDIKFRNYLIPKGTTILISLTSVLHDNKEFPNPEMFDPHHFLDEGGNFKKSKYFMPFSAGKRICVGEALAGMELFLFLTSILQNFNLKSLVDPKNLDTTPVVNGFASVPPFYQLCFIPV
Experimental: as §1, §2

[3] = BALF, 0.5 mg kg^−1, mice, intratracheal, BALF, read-out: Cmax BALF
[4] = BALF, mice, intratracheal, Figure 3B, read-out: BALF: AUC0-t
[5] = ELF (calculated from BALF), 0.5 mg kg^−1, mice, intratracheal, ELF calculated from BALF, read-out: Cmax ELF
[6] = 0.5 mg kg^−1, mice, intratracheal, BALF, read-out: AUC0-t BALF
[7] = 0.5 mg kg^−1, mice, intratracheal, BALF, read-out: MRT BALF
[8] = 0.5 mg kg^−1, mice, intratracheal, BALF, read-out: Tmax BALF
[9] = 0.5 mg kg^−1, mice, intratracheal, ELF calculated from BALF, read-out: AUC0-t ELF
[10] = 0.5 mg kg^−1, mice, intratracheal, ELF calculated from BALF, read-out: MRT ELF
[11] = 0.5 mg kg^−1, mice, intratracheal, ELF calculated from BALF, read-out: Tmax ELF
[12] = 0.5 mg kg^−1, mice, intratracheal, ELF calculated from BALF, read-out: t1/2 ELF (converted)
[13] = 0.5 mg kg^−1, mice, intratracheal, lung tissue, read-out: MRT lung
[14] = 0.5 mg kg^−1, mice, intratracheal, lung tissue, read-out: Tmax lung
[15] = 0.5 mg kg^−1, mice, intratracheal, lung tissue, read-out: t1/2 lung (converted)
[16] = 0.5 mg kg^−1, mice, intratracheal, plasma
[17] = 0.5 mg kg^−1, mice, intratracheal, plasma, read-out: AUC0-t plasma
[18] = 0.5 mg kg^−1, mice, intratracheal, plasma, read-out: MRT plasma
[19] = 0.5 mg kg^−1, mice, intratracheal, plasma, read-out: Tmax plasma
[20] = mice, intratracheal (QSI 4 0.5 mg kg^−1), plasma, read-out: t1/2 plasma (converted)
[21] = mice, intratracheal, BALF, read-out: t1/2 BALF (converted)
[22] = plasma, 0.5 mg kg^−1, mice, intratracheal, plasma, read-out: Cmax plasma
[23] = plasma, mice, intratracheal, Figure 3B, read-out: Plasma: AUC0-t
[24] = pooled mouse liver S9 fraction, Table 2, read-out: Metabolic stability t 1/2 S9 mouse

SMILES | Kp ([1]; mice, intratracheal) | Cmax [1, 3] | AUC(0-t) [1, 4] | Cmax [1, 5] | AUC(0-t) [1, 6] | MRT [1, 7] | Tmax [1, 8] | AUC(0-t) [1, 9] | MRT [1, 10] | Tmax [1, 11] | half-life [1, 12] | MRT [1, 13] | Tmax [1, 14] | half-life [1, 15] | CL/F [1, 16] | AUC(0-t) [1, 17] | MRT [1, 18] | Tmax [1, 19] | Vd/F [1, 16] | half-life [1, 20] | further results
NC[C@H]1O[C@H](O[C@H]2[C@H](O)[C@@H](O[C@H]3O[C@H](CO)[C@@H](O)[C@H](N)[C@H]3O)[C@H](N)C[C@@H]2N)[C@H](N)C[C@@H]1O [Tobramycin, tobramycin] | 3.2 | 215 ng/mL and 460 nM | 268 ± 27 ng·h/mL | 38.8 ng/mL and 83 nM | 268 ng·h/mL and 0.57 µM·h | 1.4 ± 0.1 h | 30 min | 57.5 ng·h/mL and 0.12 µM·h | 1.5 ± 0.2 h | 30 min | 33.6 ± 12 min | 1.94 h | 30 min | 67.8 min | 45.3 ± 26.6 mL/min/kg | 83.2 ng·h/mL and 0.178 µM·h | 1.45 ± 1.2 h | 30 min | 2.25 ± 1.6 L/kg | 45.6 ± 48 min | half-life [1, 21]: 49.2 ± 6 min; Cmax [1, 22]: 89.5 ng/mL and 191 nM; AUC(0-t) [1, 23]: 83.2 ± 35.3 ng·h/mL; Cmax BALF ([1]; mice, intratracheal, BALF): 215.4 ± 50 ng/mL
COc1ccc(-n2cc(CNc3ccnc(C(F)(F)F)c3)nn2)cc1Cl [Compound 17] |  |  |  |  |  |  |  |  |  |  |  |  |  |  |  |  |  |  |  |  | half-life at 1 μM [2, 24]: 11 min; IC50 (hERG channel): > 25 µM; IC50 (CYP3A4): > 25 µM; IC50 (CYP1A): 22.1 µM; IC50 (CYP2D6): > 25 µM; IC50 (CYP2C19): 3.6 µM and 3.55 µM; IC50 (CYP2C9): > 25 µM
FC(F)(F)c1cc(NCc2cn(-c3ccc(Oc4ccccc4)cc3)nn2)ccn1 [Compound 4] | 86.9 | 3770 ng/mL and 9.2 µM | 4840 ± 2180 ng·h/mL | 1290 ng/mL and 3.1 µM | 4840 ng·h/mL and 11.8 µM·h | 1.57 ± 0.1 h | 30 min | 3100 ng·h/mL and 7.5 µM·h | 1.61 ± 1.1 h | 100 ± 120 min | 33 ± 18 min | 1.27 ± 0.4 h | 30 min | 64.8 ± 30 min | 157 ± 55.5 mL/min/kg | 55.8 ng·h/mL and 0.135 µM·h | 1.2 ± 0.1 h | 30 min | 10.5 ± 1.2 L/kg | 51.6 ± 24 min | half-life at 1 μM ([2]; pooled liver S9 fraction, Table S4, read-out: t1/2 mouse liver S9): 19.9 ± 7.5 min; half-life at 1 μM [2, 24]: 29 min; IC50 (hERG channel): > 25 µM; IC50 (CYP3A4): 15 µM; IC50 (CYP1A): > 25 µM; IC50 (CYP2D6): > 25 µM; IC50 (CYP2C19): 20.3 µM; IC50 (CYP2C9): 16.4 µM; Cmax ([1]; BALF, 0.5 mg/kg, mice, intratracheal 0.5 mg kg^−1, BALF, read-out: C max in BALF): 3770 ± 2660 ng/mL; AUC ([1]; mice, intratracheal 0.5 mg kg^−1, BALF, read-out: AUC0‐t BALF): 4840 ± 2180 ng·h/mL; AUC ([1]; mice, intratracheal 0.5 mg kg^−1, ELF, read-out: AUC0‐t ELF): 3100 ± 330 ng·h/mL; AUC ([1]; mice, intratracheal 0.5 mg kg^−1, plasma, read-out: AUC0‐t plasma): 55.8 ± 21.3 ng·h/mL; half-life [1, 21]: 43.2 ± 30 min; Cmax [1, 22]: 62.6 ng/mL and 151 nM; Cmax ([1]; plasma, 0.5 mg/kg, mice, intratracheal 0.5 mg kg^−1, plasma, read-out: plasma C max): 62.6 ± 45.7 ng/mL; AUC(0-t) [1, 23]: 55.8 ± 21.3 ng·h/mL
